The values that follow come from PubChem BioAssay AID2384 (Southern Research Specialized Biocontainment Screening …, 2010).

pIC50: −log10 of the molar value.

The pIC50 is −log10 of the IC50, conventionally taken in molar units.

This assay relates to S. typhi GFP reporter counter-screen, fluorescence, 4 h. Briefly: S. typhi counter-screen signal inhibition – fluorescence, 4 h, counter-screen for PhoP regulon inhibitor project, dose response (AID 2384).
As for `O=C1NCCCC1C(=O)N/N=C/c1cc([N+](=O)[O-])ccc1O` (configuration not stated), the pIC50 was 4.17.

For `O=C(CCN1CCOCC1)c1ccc(Br)cc1`, the pIC50 was 4.14.

As to `CC(C)C1N=C(c2ccc3c(c2)OCO3)CC(c2ccccc2O)N1` (configuration not stated), the negative logarithm of the IC50 (pIC50) is 3.93.

As to `COc1cc(/C=C/[N+](=O)[O-])ccc1O`, the pIC50 is 4.35.

Turning to `O=C(NC(CO)C(O)c1ccc([N+](=O)[O-])cc1)C(Cl)Cl` (configuration not stated), the pIC50 was 5.52.

`CCOC(=O)C1=C(C(C)=O)C(c2cccnc2)C(C#N)=C(N)O1` (configuration not stated): the pIC50 is 4.24.

As for `Cc1c(N=Cc2cc(Br)cc(Br)c2O)cccc1C(=O)O`, the pIC50 was 4.40.

Turning to `CO/N=C(/C(=O)N[C@@H]1C(=O)N2C(C(=O)O)=CCS[C@H]12)c1cnc(N)s1`, the pIC50 is 4.57.

Regarding `c1ccc(CNc2nc(N3CCN(Cc4ccccc4)CC3)nc3ccccc23)cc1`, the pIC50 was 4.60.

On to `O=C(CC1NCCc2ccccc21)Nc1ccc(Oc2ccccc2)cc1` (configuration not stated), for which the pIC50 is 4.29.

For `O=C(/C=C/c1ccccc1Cl)c1ccccc(=O)c1O`, the pIC50 is 4.55.

Turning to `CCc1cccc2c1Sc1ccccc1CC2N1CCNCC1` (configuration not stated), the pIC50 is 4.41.

`CCC[C@H](CN[C@@H](CNC)[C@H](C)CC)NCCc1cc(C(F)(F)F)cc(C(F)(F)F)c1`: the pIC50 is 4.60.

With `NC(N)=N/N=C/c1ccc(OCc2ccc(Cl)cc2Cl)cc1`, the negative logarithm of the IC50 (pIC50) is 4.99.

`C#CCOCCOCCOCCNc1nc(N2CCN(C(=O)CCCCCCCCCCNC(=O)Cn3cc(CCCCCN)nn3)CC2)nc(N2CCN(C(=O)CCCCCCCCCCNC(=O)[C@@H]([C@H](C)O)n3cc(C)nn3)CC2)n1`: the pIC50 is 3.94.

For `CCCCn1c(NS(=O)(=O)c2ccc(C)cc2)c(S(=O)(=O)c2ccccc2)c2nc3ccccc3nc21`, the pIC50 was 5.01.

`CCCc1nnc(NC(=O)c2cn(CC)c3cc(N4CCN(C)CC4)c(F)cc3c2=O)s1`: the pIC50 was 4.21.

As for `NC1=NC[C@H](Cc2ccc(O)cc2)N1CCC12CC3CC(CC(C3)C1)C2`, the pIC50 was 4.42.

For `Cc1cc2oc(=O)cc(CN3CCN(C/C=C/c4ccccc4)CC3)c2cc1O`, the pIC50 is 4.03.

For the compound `Nc1nc(F)nc2c1ncn2[C@@H]1O[C@H](CO)[C@@H](O)[C@H]1O`, the pIC50 is 4.62.

For `O=C(C[n+]1cc(-c2ccc(Cl)c(Cl)c2)n2c1CCC2)N1c2ccccc2Sc2ccccc21`, the pIC50 was 4.71.

Turning to `CN(O)/C=c1/ccc2c(n1)C(=O)C=CC=2`, the pIC50 is 4.71.

For the compound `CCCCCc1ccc(OCCCC[n+]2ccccc2)c(CCCCC)c1`, the pIC50 was 4.44.

As to `O=C1C=CC(=O)N1CCCCCCN1C(=O)C=CC1=O`, the pIC50 is 4.10.

`O=C(/C=C/c1ccccc1)c1ccc(NC2=NCCCS2)cc1`: the pIC50 was 4.17.

Take `Clc1ccc2[nH]c3c(c2c1)CCc1cn[nH]c1-3`: the pIC50 is 3.98.

Regarding `C#CCOCCOCCOCCNc1nc(N2CCN(C(=O)[C@H](CCCCN)n3cc([C@@H](N)CC(C)C)nn3)CC2)nc(N2CCN(C(=O)[C@H](Cc3cc4ccccc4[nH]3)n3cc([C@@H](N)Cc4ccc(O)cc4)nn3)CC2)n1`, the pIC50 is 4.57.

With `O=C(O)c1cc2c(cn1)[nH]c1ccccc12`, the pIC50 is 4.03.

As to `Cc1ccc(-n2c(C)cc(C3N=C(N)Nc4nc5ccccc5n43)c2C)c(C)c1` (configuration not stated), the pIC50 is 4.58.

With `CN(C)CCN(C(=O)C1=COCCO1)c1nc2ccc(Cl)cc2s1`, the pIC50 is 4.31.

With `O=C(N/N=C/c1cc(Br)ccc1O)c1ccncc1`, the pIC50 was 4.69.

Turning to `O=[N+]([O-])c1cc(O)c2ncccc2c1`, the pIC50 was 4.80.

In the case of `O=C(CCc1ccccc1)NNC(=O)c1ccccn1`, the pIC50 was 4.24.

`O=C(CSc1ccccn1)N/N=C/c1cc([N+](=O)[O-])ccc1O`: the negative-log IC50 (pIC50) was 4.39.

As for `N=c1c2c(n(Cc3ccc(Cl)cc3)c3c1CCC3)CCC2`, the pIC50 is 4.10.

On to `CN1C(=O)NC(c2ccc(O)cc2)C(C(=O)c2cccs2)C1(O)C(F)(F)F` (configuration not stated), for which the pIC50 is 4.72.

With `COc1ccc(N2CC(C(=O)N/N=C/c3cc([N+](=O)[O-])ccc3O)CC2=O)cc1` (configuration not stated), the pIC50 is 4.03.

As for `O=C(N/N=C/c1ccccc1O)c1ccncc1`, the pIC50 is 4.69.

In the case of `O=C(OCC(=O)N1CCOCC1)c1ccc[nH]c1=O`, the pIC50 was 4.96.

As to `COc1ccc(CNCC(O)COc2ccc(C)cc2[N+](=O)[O-])cc1` (configuration not stated), the pIC50 is 3.89.

For the compound `O[C@@H](c1cc(C(F)(F)F)nc2c(C(F)(F)F)cccc12)[C@H]1CCCCN1`, the pIC50 was 4.42.

As for `Cc1cccc(Nc2cc(C)c3c(O)cccc3n2)c1C`, the pIC50 is 4.47.

For `COc1ccc(/C=C/C(=O)NC(=S)NNC(=O)c2cnccn2)cc1`, the pIC50 was 4.51.

Take `CNC[C@H](CC1CCCCC1)NC[C@H](Cc1ccccc1)NCCC12CC3CC(CC(C3)C1)C2`: the pIC50 is 4.98.

For the compound `O=C(Nc1cccc([N+](=O)[O-])c1)Nc1cccs1`, the pIC50 is 4.41.

`CCCCCCCCCCCCCCCC[N+](C)(C)CC`: the pIC50 is 4.71.

Turning to `COc1c(N2CCN(C(=S)Nc3ccccc3F)C(C)C2)c(F)cc2c(=O)c(C(=O)O)cn(C3CC3)c12` (configuration not stated), the pIC50 is 5.02.

Turning to `c1ccc(Nc2nc(NCc3ccco3)c3ccccc3n2)cc1`, the pIC50 was 4.67.

Regarding `C#CCOCCOCCOCCNc1nc(N2CCN(C(=O)CCCCCCCCCCNC(=O)Cn3cc(C[C@@H](C)O)nn3)CC2)nc(N2CCN(C(=O)CCCCCCCCCCNC(=O)[C@@H]([C@H](C)CC)n3cc(CCCCCN)nn3)CC2)n1`, the pIC50 is 3.85.

`COc1ccc(C(C[N+](=O)[O-])C2(c3ccc(OC)c(OC)c3)C(=O)c3ccccc3C2=O)cc1` (configuration not stated): the pIC50 is 4.74.

For `CCCCNC1=CC(=O)C(=O)c2ccccc21`, the pIC50 was 4.14.

As to `O=C(N/N=C\c1cccc([N+](=O)[O-])c1O)C1COc2ccccc2O1` (configuration not stated), the pIC50 was 4.93.

Consider `COc1cccc(-c2nnc(NC(=O)c3ccc(Cl)s3)o2)c1`, for which the pIC50 is 4.34.

As for `OCCN1CCN(CCCN2c3ccccc3Sc3ccc(C(F)(F)F)cc32)CC1`, the pIC50 is 4.12.

Take `O=c1[nH]cc(F)c(=O)[nH]1`: the pIC50 was 5.60.

For the compound `OC1CCCN(Cc2ccc3ccc4cccc5ccc2c3c45)C1` (configuration not stated), the pIC50 was 4.22.

Regarding `Cc1ccc(OCC(=O)N/N=C\c2c(C)[nH]n(-c3ccccc3)c2=O)c([N+](=O)[O-])c1`, the pIC50 was 4.37.

On to `O=C(N/N=C/c1cccs1)c1ccc2nc[nH]c2c1`, for which the pIC50 is 3.90.

For `C/C(O)=C\c1nc2ccccc2oc1=O`, the pIC50 is 4.38.

For `CCCCCCCCCCn1c2c(c(=N)c3c1CCC3)CCC2`, the pIC50 is 5.01.

As for `COc1cc([N+](=O)[O-])cc(/C=N/NC(=O)C(C)Nc2cccc(C)c2)c1O` (configuration not stated), the pIC50 was 3.87.

In the case of `OCCNCc1cc(Br)ccc1OCc1ccc(Cl)cc1`, the pIC50 is 4.46.

As to `c1ccc(CN2CCC(N3CCN(Cc4ccc5c(c4)OCO5)CC3)CC2)cc1`, the pIC50 was 3.82.

In the case of `C1=C(CCNCc2ccccc2)CCCC1`, the pIC50 is 4.77.

With `COc1ccc2[nH]c3c(C)c4ccncc4c(C)c3c2c1`, the pIC50 is 4.67.

Regarding `CC(Nc1nc(N2CCCC2)nc2ccccc12)c1ccccc1` (configuration not stated), the pIC50 is 4.12.

Take `CCN1CCCC1Cn1cnc2c([nH]c3ccc(Cl)cc32)c1=O` (configuration not stated): the pIC50 was 3.93.

In the case of `CCN1CCN(Cc2ccc(NC(=O)c3ccc(C)c(NC(=O)C(=O)c4c[nH]c5ccccc45)c3)cc2C(F)(F)F)CC1`, the pIC50 is 4.23.

As to `O=[N+]([O-])c1cc(Cl)c2cccnc2c1O`, the pIC50 was 5.37.

As to `O=C(Cc1ccc(Br)cc1)c1ccc(O)cc1O`, the pIC50 is 3.97.

Turning to `CC(/C=N/Nc1nc2ccccc2[nH]1)=C\c1ccccc1`, the pIC50 was 4.11.

Consider `O=C1c2ccccc2NC(c2ccc(-c3ccc(Br)cc3)o2)N1O` (configuration not stated), for which the pIC50 is 4.59.

For `COc1cccc(Nc2nc(NCC3CCCO3)c3ccccc3n2)c1` (configuration not stated), the pIC50 was 4.51.

`CCCCCC(=O)NC(=S)NNC(=O)CC`: the pIC50 is 4.16.

In the case of `CN(C)c1ccc(Nc2nc(N)c3ccccc3n2)cc1`, the pIC50 was 4.11.

Turning to `CC(C)(c1ccccc1)c1ccc(OCCCN2CCNCC2)cc1`, the pIC50 was 4.40.

As for `CCCCCCCCCCOC(=O)Cn1c(COc2cccc(OC)c2)[n+](C)c2ccccc21`, the pIC50 is 4.99.

Take `CC1CCN(CCCNC(=O)c2ccc3c(=O)n(Cc4ccc(Cl)cc4)c(=S)[nH]c3c2)CC1`: the pIC50 was 4.32.

On to `COc1cccc(CNCCc2c[nH]c3ccccc23)c1OCc1ccccc1`, for which the pIC50 is 4.05.

With `Cc1ccc2cc(CN(CCN(C)C)C(=O)Nc3ccc(Cl)cc3)c(=O)[nH]c2c1`, the pIC50 is 4.30.

Consider `C#CCOCCOCCOCCNc1nc(N2CCN(C(=O)CCCCCCCCCCNC(=O)[C@H](CO)n3cc(CCCCCN)nn3)CC2)nc(N2CCN(C(=O)CCCCCCCCCCNC(=O)[C@H](CCCN=C(N)N)n3cc(C[C@@H](C)CC)nn3)CC2)n1`, for which the pIC50 is 4.71.

As for `Cc1ccc(NC2=NCCCS2)cc1Cl`, the pIC50 was 3.90.

For the compound `O=C(CN1C2=NCCCN2c2ccccc21)c1ccc2c(c1)OCO2`, the pIC50 was 3.90.

Regarding `O=C(c1ccccc1)c1c2c(cc3sc4ccccc4[n+]13)-c1cccc3cccc-2c13`, the negative logarithm of the IC50 (pIC50) is 4.26.

In the case of `CCOC(=O)C1=C(c2ccccc2)NC(N)=NC1c1ccc(OCc2ccc(C(=O)OC)cc2)cc1` (configuration not stated), the pIC50 was 4.45.

Consider `CO[C@H]1C=CO[C@@]2(C)Oc3c(C)c(O)c4c(O)c(c5c(c4c3C2=O)NC2(CCN(CC(C)C)CC2)N=5)=NC(=O)C(C)=CC=C[C@H](C)[C@H](O)[C@@H](C)[C@@H](O)[C@@H](C)[C@H](OC(C)=O)[C@@H]1C`, for which the pIC50 was 5.66.

Take `COc1ccc(C(=O)NC(=S)NNC(=O)CCc2ccccc2)cc1`: the pIC50 was 3.86.

In the case of `CCN1CCN(C(=O)c2cc3cc(Cl)ccc3[nH]2)CC1`, the pIC50 is 4.52.

On to `CC1CC(=O)c2c(cc3c(-c4c(O)cc(O)c5c(O)c6c(cc45)OC(C)CC6=O)c(O)cc(O)c3c2O)O1` (configuration not stated), for which the pIC50 is 4.54.

For the compound `CO[C@H]1C=CO[C@@]2(C)Oc3c(C)c(O)c4c(O)c(c(C=NN5CCN(C)CC5)c(O)c4c3C2=O)NC(=O)C(C)=CC=C[C@H](C)[C@H](O)[C@@H](C)[C@@H](O)[C@@H](C)[C@H](OC(C)=O)[C@@H]1C`, the pIC50 was 4.45.

On to `Cc1ccc2c(c1)C1CN(C)CCC1N2C(=O)COc1ccccc1F` (configuration not stated), for which the pIC50 is 3.96.

As to `CN(C)CCCn1c(SCC(=O)N2c3ccccc3Sc3ccccc32)nc2ccccc2c1=O`, the pIC50 is 4.33.
